Experimental data published in patent publication US10899747B2, “Biaryl piperidine amide compounds and methods of use thereof” (Athenex, Inc., priority 2017, dated 2021).

What was measured:
Assay type in all cases: cell-based
[1] = test system: IL-2; assay: PHA-IL2 (cell activation and cytokine analysis); details: 50% inhibition concentration class
How it was run: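 Cells were seeded in 96-well plates at 1.0-2.0×10^6 cells/ml in 150 ul of RPMI containing 0.5% fetal calf serum. Test compounds, at up to ≤20 uM, were preincubated with the cells for 30 minutes, then phytohemagglutinin (PHA) was added and cultures were stimulated for 24-48 hours at 37 degrees C./5% CO2. Supernatant IL-2 was then quantified by standard ELISA.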

[2] = test system: IL-2; assay: IL-2 secretion by ELISA in Jurkat T cells stimulated with PMA and ionomycin; details: Homo sapiens, supernatants harvested at 20 hours, read-out: concentration required to achieve 50% inhibition (IC50) of IL-2
Procedure: Jurkat (a transformed human T cell leukemia) cells were plated in 96-well plates at a final density of 1.0-2.0×10^6 cells/ml in 150 ul of assay medium (RPMI+0.5% fetal calf serum). Compounds 403 and 413 were included at a final concentration of ≤20 uM and pre-incubated with cells for 30 minutes prior to stimulation. Mitogens PMA and ionomycin were added to the T cell receptor (TCR) complex (e.g., anti-CD3c) and CD28. Cell cultures were stimulated for 24-48 hours in a humidified incubator (37 degrees C./5% CO2). A fraction of the culture supernatant was then harvested from each well and assayed for the presence of appropriate cytokine using standard ELISA. Cytokines analyzed was IL-2. If required, the number of cytokine producing cells can be determined using intracellular staining and flow cytometry.
More specifically, Jurkat T cells were stimulated with the mitogens PMA and ionomycin in the presence of varying concentrations of compound 403 or compound 413. Supernatants were harvested at 20 hours and analyzed for IL-2 content by ELISA. IL-2 values obtained from vehicle (DMSO) treated control wells (˜2800 pg/ml) were assigned a value of 100% and used to calculate the % inhibition achieved for each compound.

[3] = test system: NFAT; assay: NFAT-dependent Firefly luciferase reporter assay in Jurkat T cells stimulated with PMA and ionomycin; details: Homo sapiens, PMA and ionomycin for 6 hours, read-out: concentration required to achieve 50% inhibition (IC50) of NFAT-dependent luciferase activity
Procedure: Jurkat T cells were transiently transfected with a DNA plasmid encoding Firefly luciferase under the transcriptional control of an appropriate regulatory element that may include multimerized NFAT, AP-1, NFκB, or CREB binding sites. Cells were co-transfected with a DNA plasmid encoding Renilla luciferase under the transcriptional control of a constitutive regulatory element (e.g., HSV-TK promoter). 24 hours following transfection, cells were collected and re-seeded in 96-well plates at a final density of 1.0×10^6 cells/ml in 150 ul assay medium. Compound 413 was included at a final concentration of ≤20 uM and pre-incubated with cells for 30 minutes prior to stimulation. […] Cells were then lysed and the level of Firefly luciferase and Renilla Luciferase activity was determined using a standard assay (e.g., Promega's Dual Luciferase Reporter Assay System) and plate-reading luminometer. The ratio obtained by dividing activation induced Firefly luciferase activity by the constitutive Renilla luciferase activity was calculated and used as a quantitative measurement of cell activation.
More specifically, Jurkat T cells were co-transfected with a NFAT-dependent Firefly Luciferase reporter plasmid and a control Renilla Luciferase reporter plasmid. […] Lysates were prepared and analyzed for luciferase activity using the Dual Luciferase Reporter Assay System (Promega). […]

IC50 [1] [nM] | IC50 [2] [nM] | IC50 [3] [nM] | Compound
< 1000 | 68 |  | CC(C)Oc1cccc(CCC2CCN(C(=O)COc3ccccc3-c3ccc(C#N)cc3)CC2)c1 [Compound 403]
< 1000 | 18 | 9 | CC(C)Oc1cccc(CCC2CCN(C(=O)COc3ccc(C#N)cc3-c3ccc(C#N)cc3)CC2)c1 [Compound 413]
